These are literature values, as cited in US11491200B2, “Herbal compositions and methods for the prevention and treatment of nail infections” (Produits Naturels Mondias Inc., priority 2016, dated 2022).

This series deals with onychomycosis. To be noted: mild-to-moderate onychomycosis; versus 3% for placebo.

For the compound `C=C1CCN([C@H](C)[C@](O)(Cn2cncn2)c2ccc(F)cc2F)CC1` [Jublia], the efficacy is 17%.
